Biological target: human NaV subtype, like NaV 1.7 (Homo sapiens, UniProt Q15858)
Experiment: E-VIPR optical membrane potential assay with electrical stimulation
Type: cell-based
Details: active against one or more sodium channels; Table 3 does not name the assay or NaV subtype; read-out: Binned Activity Data (IC50)

Chain of human NaV subtype, like NaV 1.7 (Q15858 whole entry): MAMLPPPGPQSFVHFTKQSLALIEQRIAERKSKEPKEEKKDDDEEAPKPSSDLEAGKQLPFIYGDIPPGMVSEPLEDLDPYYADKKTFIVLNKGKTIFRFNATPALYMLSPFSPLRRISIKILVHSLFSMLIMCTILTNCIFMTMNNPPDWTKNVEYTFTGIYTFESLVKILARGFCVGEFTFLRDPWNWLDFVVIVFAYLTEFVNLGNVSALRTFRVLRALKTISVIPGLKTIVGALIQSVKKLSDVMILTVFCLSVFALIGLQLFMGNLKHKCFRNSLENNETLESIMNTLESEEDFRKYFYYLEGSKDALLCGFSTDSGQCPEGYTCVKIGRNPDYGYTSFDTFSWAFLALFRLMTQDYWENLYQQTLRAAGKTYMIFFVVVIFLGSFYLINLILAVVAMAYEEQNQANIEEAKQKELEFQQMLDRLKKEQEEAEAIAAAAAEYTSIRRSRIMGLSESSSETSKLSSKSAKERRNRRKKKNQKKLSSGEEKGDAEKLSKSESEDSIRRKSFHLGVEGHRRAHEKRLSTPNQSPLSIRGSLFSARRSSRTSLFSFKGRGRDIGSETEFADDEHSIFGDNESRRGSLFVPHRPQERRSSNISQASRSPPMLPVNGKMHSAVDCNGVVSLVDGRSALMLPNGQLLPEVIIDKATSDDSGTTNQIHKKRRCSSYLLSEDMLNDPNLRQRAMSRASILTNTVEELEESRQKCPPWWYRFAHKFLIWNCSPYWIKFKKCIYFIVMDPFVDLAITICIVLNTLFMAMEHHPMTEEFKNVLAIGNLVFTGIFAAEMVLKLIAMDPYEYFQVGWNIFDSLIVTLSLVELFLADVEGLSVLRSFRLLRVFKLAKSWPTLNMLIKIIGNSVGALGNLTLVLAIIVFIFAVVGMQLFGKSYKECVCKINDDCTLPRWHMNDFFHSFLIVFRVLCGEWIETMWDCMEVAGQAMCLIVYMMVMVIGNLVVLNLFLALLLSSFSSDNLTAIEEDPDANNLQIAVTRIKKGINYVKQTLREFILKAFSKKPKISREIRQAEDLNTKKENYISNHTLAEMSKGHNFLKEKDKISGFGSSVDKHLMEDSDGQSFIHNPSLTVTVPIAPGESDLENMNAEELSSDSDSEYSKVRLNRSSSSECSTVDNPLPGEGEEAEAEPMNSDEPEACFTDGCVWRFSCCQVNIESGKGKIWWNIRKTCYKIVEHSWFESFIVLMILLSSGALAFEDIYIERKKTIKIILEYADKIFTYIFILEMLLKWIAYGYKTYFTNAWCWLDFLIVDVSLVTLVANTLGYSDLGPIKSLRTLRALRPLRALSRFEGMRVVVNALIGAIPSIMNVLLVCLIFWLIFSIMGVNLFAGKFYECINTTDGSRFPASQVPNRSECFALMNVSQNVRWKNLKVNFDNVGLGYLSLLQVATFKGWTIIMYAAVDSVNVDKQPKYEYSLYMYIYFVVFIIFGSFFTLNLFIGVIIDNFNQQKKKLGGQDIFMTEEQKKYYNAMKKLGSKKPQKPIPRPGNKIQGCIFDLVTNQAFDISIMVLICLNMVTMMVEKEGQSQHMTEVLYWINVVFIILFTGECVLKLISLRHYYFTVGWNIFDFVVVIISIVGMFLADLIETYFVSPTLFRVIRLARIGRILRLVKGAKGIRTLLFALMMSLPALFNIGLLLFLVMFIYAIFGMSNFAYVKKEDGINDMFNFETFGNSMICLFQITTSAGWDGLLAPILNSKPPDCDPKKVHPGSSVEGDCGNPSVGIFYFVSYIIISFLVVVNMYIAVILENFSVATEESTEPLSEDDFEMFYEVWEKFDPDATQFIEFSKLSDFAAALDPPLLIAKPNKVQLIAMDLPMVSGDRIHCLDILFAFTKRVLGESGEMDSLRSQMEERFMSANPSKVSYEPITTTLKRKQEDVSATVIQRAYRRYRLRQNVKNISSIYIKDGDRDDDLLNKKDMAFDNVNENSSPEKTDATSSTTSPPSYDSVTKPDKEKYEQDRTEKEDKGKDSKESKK

Compound	IC50 [nM]
Cc1cc(C(=O)N2CCC3(CC2)c2ccc(C(=O)C(F)(F)F)n2CCN3C)ccc1O [Compound 201]	≤ 2000
CC(C)Oc1ccc(C(=O)N2CC[C@]3(c4ccc(C(F)(F)F)n4CCN3C)[C@H](F)C2)cc1CO [Compound 202]	2000 to 5000
CCCCOc1ccc(C(=O)N2CCC3(CC2)c2ccc(C(F)(F)F)n2CCN3C)cc1OC [Compound 203]	≤ 2000
COc1ccc(C(=O)N2CCC3(CC2)NC(C)(C)Cn2c(C(C)=O)ccc23)cc1Cl [Compound 204]	> 5000
COc1ccc(C(=O)N2CCC3(CC2)c2ccc(C(C)=O)n2CCN3C)cc1-c1ccccc1 [Compound 205]	> 5000
Cc1nc(C(=O)N2CCC3(CC2)c2c(F)cc(C(F)(F)F)n2CCN3C)ccc1OC(C)C [Compound 206]	≤ 2000
Cc1cc(C(=O)N2CCC3(CC2)c2ccc(C(=O)C(F)(F)F)n2C[C@H](C)N3C)ccc1O [Compound 207]	≤ 2000
CC1(C)Cn2c(C(=O)C(F)(F)F)ccc2C2(CCN(C(=O)c3ccc(S(=O)(=O)C(C)(C)C)cc3)CC2)N1 [Compound 208]	≤ 2000
COc1cc(C(=O)N2CCC3(CC2)c2ccc(Cl)n2CCN3C)ccc1C(C)(C)C [Compound 209]	≤ 2000
CCOC(=O)N1CCn2c(C#N)ccc2C12CCN(C(=O)c1ccc(OC(C)C)c(C)c1)CC2 [Compound 210]	2000 to 5000
Cc1cc(C(=O)N2CCC3(CC2)c2ccc(C(F)(F)C(F)(F)F)n2CCN3C)ccc1OC(C)C [Compound 211]	≤ 2000
CCCCOc1cc(C(=O)N2CCC3(CC2)c2ccc(C(F)(F)F)n2CCN3C)ccc1OC [Compound 212]	≤ 2000
COc1cc(C(=O)N2CCC3(CC2)c2ccc(C(F)(F)F)n2CCN3C)ccc1C(C)(C)O [Compound 213]	≤ 2000
CN1CCn2c(C(=O)C(F)(F)F)ccc2C12CCN(C(=O)c1ccc(COc3ccccc3)cc1)CC2 [Compound 214]	≤ 2000
Cc1cc(C(=O)N2CCC3(CC2)c2c(F)cc(C(F)(F)F)n2CCN3C)ccc1S(=O)(=O)C(C)C [Compound 215]	≤ 2000
Cc1cc(C(=O)N2CCC3(CC2)c2ccc(C(=O)C(F)(F)F)n2CCN3C)ccc1-c1ccc(C#N)nc1 [Compound 216]	≤ 2000
Cc1cc(C(=O)N2CCC3(CC2)c2c(F)cc(C(F)(F)F)n2CCN3C)ccc1OCC(C)(C)O [Compound 217]	≤ 2000
CC1(C)Cn2c(C(=O)C(F)(F)F)ccc2C2(CCN(C(=O)c3ccc(-c4ccccc4)c(O)c3)CC2)N1 [Compound 218]	> 5000
CC(=O)c1ccc2n1CCN(C)C21CCN(C(=O)c2ccc(OCCC(C)C)cc2)CC1 [Compound 219]	≤ 2000
CC(C)Oc1ccc(C(=O)N2CCC3(CC2)c2ccc(Cl)n2CCN3C)cc1C#N [Compound 220]	2000 to 5000
CC(C)c1ccc(C(=O)N2CCC3(CC2)c2ccc(Cl)n2CCN3C)cc1 [Compound 221]	> 5000
Cc1cc(C(=O)N2CCC3(CC2)NC(C)Cn2c(C(F)(F)F)ccc23)ccc1OC(C)C (stereo not shown) [Compound 222]	≤ 2000
COc1ccc(C(=O)N2CCC3(CC2)c2ccc(C(=O)C(F)(F)F)n2C(C)(C)CN3C)cc1C [Compound 223]	2000 to 5000
CCCc1ccc(C(=O)N2CCC3(CC2)c2ccc(Cl)n2CCN3C)cc1 [Compound 224]	> 5000
CC(=O)c1ccc2n1C(C)(C)CN(C)C21CCN(C(=O)c2ccc(C(C)(C)O)c(F)c2)CC1 [Compound 225]	> 5000

Compound	IC50 [nM]
CN1CCn2c(ccc2C(F)(F)C(F)(F)F)C12CCN(C(=O)c1ccc(CC(C)(C)O)c(F)c1)CC2 [Compound 226]	≤ 2000
COc1cc(C(=O)N2CCC3(CC2)c2ccc(C(F)(F)F)n2CCN3C(=O)N(C)C)ccc1OC(C)C [Compound 227]	> 5000
CN1CCn2c(C(F)(F)F)cc(Cl)c2C12CCN(C(=O)c1ccc(C3(O)CCC3)cc1)CC2 [Compound 228]	≤ 2000
CCCOc1cc(C(=O)N2CCC3(CC2)c2ccc(Cl)n2CCN3C)ccc1OC [Compound 229]	2000 to 5000
COc1cc(C(=O)N2CCC3(CC2)c2ccc(C(C)=O)n2CCN3C)ccc1OCC(C)C [Compound 230]	≤ 2000
Cc1cc(C(=O)N2CCC3(CC2)c2cc(C(=O)C(F)(F)F)cn2C(C)(C)CN3C)ccc1OC(C)C [Compound 231]	> 5000
CC(C)Oc1ccc(C(=O)N2CCC3(CC2)NC(C)(C)Cn2c(C(=O)C(F)(F)F)ccc23)cc1F [Compound 232]	≤ 2000
CC(C)Oc1ccc(C(=O)N2CCC3(CC2)c2ccc(C(=O)C(F)(F)F)n2CCN3C)cc1 [Compound 233]	≤ 2000
COc1cc(C(=O)N2CCC3(CC2)c2ccc(Cl)n2CCN3C)ccc1OC(C)C [Compound 234]	> 5000
Cc1cc(C(=O)N2CCC3(CC2)NCC(C)n2c(C(=O)C(F)(F)F)ccc23)ccc1C(C)(C)O (stereo not shown) [Compound 235]	≤ 2000
Cc1cc(C(=O)N2CCC3(CC2)c2ccc(C(=O)C(F)(F)F)n2CCN3C)ccc1-c1cccc(Cl)c1 [Compound 236]	≤ 2000
CN1CCn2c(C(=O)C(F)(F)F)ccc2C12CCN(C(=O)c1ccc(COCCC(F)(F)F)cc1)CC2 [Compound 237]	≤ 2000
Cc1cc(C(=O)N2CCC3(CC2)c2ccc(C(=O)C(F)(F)F)n2CCN3C)cc(C)c1O [Compound 238]	≤ 2000
COc1ccc(C(=O)N2CCC3(CC2)c2cc(C(=O)C(F)(F)F)cn2C(C)(C)CN3C)cc1C [Compound 239]	> 5000
COc1ccc(C(=O)N2CCC3(CC2)c2ccc(C(=O)C(F)(F)F)n2C(C)CN3C)cc1C(F)(F)F (stereo not shown) [Compound 240]	≤ 2000
CCCCOc1cc(C(=O)N2CCC3(CC2)NCCn2c(C(F)(F)F)ccc23)ccc1OC [Compound 241]	> 5000
CN1CCn2c(C(F)(F)F)cc(F)c2C12CCN(C(=O)c1ccc(C3(O)CCC3)cc1)CC2 [Compound 242]	≤ 2000
CC(C)Oc1ccc(C(=O)N2CCC3(CC2)c2ccc(C(=O)C(C)(C)C)n2CCN3C)cc1Cl [Compound 243]	≤ 2000
CN1CCn2c(C(F)(F)F)ccc2[C@]12CCN(C(=O)c1ccc(S(=O)(=O)NC3CC3)cc1)C[C@H]2F [Compound 244]	≤ 2000
COCCOc1ccc(C(=O)N2CCC3(CC2)c2ccc(C(F)(F)C(F)(F)F)n2CCN3C)cc1OC [Compound 245]	≤ 2000
CC(=O)c1ccc2n1CCN(C)C21CCN(C(=O)c2ccc(S(=O)(=O)C(C)C)c(C)c2)CC1 [Compound 246]	> 5000
COc1cc(C(=O)N2CCC3(CC2)N[C@H]2CCCC[C@H]2n2cccc23)ccc1OCCC(C)C [Compound 247]	≤ 2000
Cc1cc(C(F)F)n2ncc(C(=O)N3CCC4(CC3)c3ccc(C(=O)C(C)(C)C)n3CCN4C)c2n1 [Compound 248]	≤ 2000
Cc1cc(C(=O)N2CCC3(CC2)c2c(F)cc(C(F)(F)F)n2CCN3C)ccc1OCCCO [Compound 249]	≤ 2000
CC(C)Oc1ccc(C(=O)N2CCC3(CC2)c2ccc(Cl)n2CCN3C)cc1Cl [Compound 250]	≤ 2000

Compound	IC50 [nM]
CN1CCn2c(C(=O)C(C)(C)C)ccc2C12CCN(C(=O)c1ccc(C(C)(C)O)c(F)c1)CC2 [Compound 251]	≤ 2000
COc1ccc(C(=O)N2CCC3(CC2)c2ccc(C(=O)C(F)(F)F)n2C[C@@H](C)N3C)cc1Cl [Compound 252]	> 5000
CN1CCn2c(ccc2C(F)(F)C(F)(F)F)C12CCN(C(=O)c1ccc(C(C)(C)O)c(F)c1)CC2 [Compound 253]	≤ 2000
CC1(C)Cn2c(C(=O)C(F)(F)F)ccc2C2(CCN(C(=O)c3ccc(C(C)(C)O)c(F)c3)CC2)N1 [Compound 254]	≤ 2000
COc1ccc(C(=O)N2CCC3(CC2)c2c(F)cc(C(F)(F)F)n2CCN3C)cc1C(F)(F)F [Compound 255]	≤ 2000
Cc1cc(C(=O)N2CCC3(CC2)NC(C)(C)Cn2cc(F)c(F)c23)ccc1OC(C)C [Compound 256]	> 5000
CN1CCn2c(C(F)(F)F)ccc2C12CCN(C(=O)c1ccc(S(=O)(=O)C3CC3)cc1)CC2 [Compound 257]	≤ 2000
COc1cc(C(=O)N2CCC3(CC2)c2c(Cl)cc(C(F)(F)F)n2CCN3C)ccc1OCC(C)(C)F [Compound 258]	≤ 2000
COC(=O)N1CCn2c(C(F)(F)F)ccc2C12CCN(C(=O)c1ccc(OC(C)C)c(OC)c1)CC2 [Compound 259]	≤ 2000
CC(=O)c1ccc2n1CCN(C)C21CCN(C(=O)c2ccc(Cc3ccccc3)cc2)CC1 [Compound 260]	2000 to 5000
Cc1nc(C(=O)N2CCC3(CC2)c2c(Cl)cc(C(F)(F)F)n2CCN3C)ccc1OC(C)C [Compound 261]	≤ 2000
Cc1cc(C(=O)N2CCC3(CC2)c2c(F)cc(C(F)(F)F)n2CCN3C)ccc1C(C)(C)O [Compound 262]	≤ 2000
Cc1cc(C(=O)N2CCC3(CC2)c2ccc(C(F)(F)F)n2CCN3C)ccc1OCC(C)(C)O [Compound 263]	≤ 2000
COc1c(F)cccc1C(=O)N1CCC2(CC1)c1ccc(C(=O)C(F)(F)F)n1C[C@H](C)N2C [Compound 264]	≤ 2000
Cc1cc(C(=O)N2CCC3(CC2)NCCn2c(C(F)(F)F)ccc23)ccc1S(=O)(=O)N(C)C [Compound 265]	≤ 2000
Cc1cc(C(=O)N2CCC3(CC2)c2ccc(C(=O)C(F)(F)F)n2CCN3C)ccc1C(C)(C)O [Compound 266]	≤ 2000
CN1CCn2c(C(=O)C3(C)CC3)ccc2C12CCN(C(=O)c1ccc(C(C)(C)O)cc1)CC2 [Compound 267]	2000 to 5000
CC(=O)c1ccc2n1CCN(C)C21CCN(C(=O)c2ccc(S(=O)(=O)C(F)F)cc2)CC1 [Compound 268]	> 5000
COCCN1CCn2cccc2C12CCN(C(=O)c1ccc(OC(C)C)c(C)c1)CC2 [Compound 269]	≤ 2000
CC(C)Oc1ccc(C(=O)N2CCC3(CC2)NC(C)(C)Cn2c(C(=O)C(F)(F)F)ccc23)cc1Cl [Compound 270]	≤ 2000
CN1CCn2c(C(=O)C(F)(F)F)ccc2C12CCN(C(=O)c1ccc(Cl)c(O)c1)CC2 [Compound 271]	> 5000
CN1CCn2c(C(F)(F)F)ccc2C12CCN(C(=O)c1ccccc1OC(F)(F)F)CC2 [Compound 272]	2000 to 5000
CC(C)Oc1ccc(C(=O)N2CCC3(CC2)NCCn2c(C(F)(F)F)ccc23)cc1 [Compound 273]	2000 to 5000

Source: patent US8916565B2, “Pyrrolopyrazine-spirocyclic piperidine amides as modulators of ion channels” (priority 2011, dated 2014)
